This is an account of results in paper PMC4789278, “Pharmacological inhibition of LSD1 for the treatment of MLL-rearranged leukemia” (Journal of Hematology & Oncology, 2016).

Molecules are shown by their SMILES. Entries after “also recorded” stand apart in the source; their conditions may differ.

For one data set, the system named is MV4-11 leukemia cells. Nature of the data set: Antiproliferation assay (XTT), MV4-11. The data set is classed as cell-based. The note with it: Homo sapiens, MV4-11, 360 h; 15-day treatment; MLL-rearranged leukemia; read-out: MV4-11 EC50 (antiproliferative). The procedure: Next, these three compounds were tested for their cellular activity against proliferation of MV4-11 leukemia cells bearing MLL-AF4 fusion oncogene.
(§1) These compounds were incubated with a panel of six human leukemia and solid tumor cell lines, including two MLL-rearranged leukemia cells MV4-11 and Molm-13 containing fusion oncogenes MLL-AF4 and -AF9, respectively. […] Also included in the studies are breast cancer MCF-7 and prostate cancer LNCaP cells.
(§2) Proliferation inhibition assay for suspension leukemia cells was performed using an XTT assay kit (Roche) with our previously described method. Proliferation inhibition assay for solid tumor cell lines MCF-7 and LNCaP was performed using our previous described MTT assay. The antiproliferation EC50 values were determined by Prism, and the reported results were the mean values of at least three independent experiments.
For orientation: Tetrazolium assays rely on reduction of a dye to a coloured formazan, in cell work by metabolically active cells.

In another data set the test system is Molm-13 leukemia cells. Nature of the data set: Antiproliferation assay (XTT), Molm-13. The data set is classed as cell-based. The note with it: Homo sapiens, MOLM-13, 360 h; 15-day treatment; MLL-rearranged leukemia; read-out: Molm-13 EC50 (antiproliferative). Here is the method: as §1, §2
A further data set has as its system NB4 leukemia cells. The experiment in a line: Antiproliferation assay (XTT), NB4. The data set is classed as cell-based. The note with it: Homo sapiens, 360 h; 15-day treatment; non-MLL leukemia cells; read-out: NB4 EC50 (antiproliferative). The procedure: (§3) We next examined the spectrum of antitumor activity for compounds 1–4. These compounds were incubated with a panel of six human leukemia and solid tumor cell lines, including two MLL-rearranged leukemia cells MV4-11 and Molm-13 containing fusion oncogenes MLL-AF4 and -AF9, respectively. […] Also included in the studies are breast cancer MCF-7 and prostate cancer LNCaP cells. […]
as §2

The next data set relates to U937 leukemia cells. Nature of the data set: Antiproliferation assay (XTT), U937. The data set is classed as cell-based. The note with it: Homo sapiens, U-937, 360 h; 15-day treatment; non-MLL leukemia cells; read-out: U937 EC50 (antiproliferative). The procedure:
as §3, §2

For data set [1], the system named is breast cancer MCF-7 cells. The experiment in a line: Antiproliferation assay (MTT), MCF-7. The note with it: Homo sapiens, MCF7, 360 h, 15-day treatment, read-out: MCF-7 EC50 (antiproliferative). The data set is classed as cell-based. The procedure: as §1, §2
In a further data set the test system is MV4-11 cells. The experiment in a line: FACS of differentiation markers CD14 / CD11b. The note with it: for cell populations expressing high levels of CD14: treatment for 12 days. The data set is classed as cell-based, human. Here is the method:
Importantly, only these stem-like cancer cells can form new tumors when transplanted into a new host, while the other non-stem cancer cells fail to do so. These stem-like cancer cells are more drug resistant and believed to be responsible for tumor metastasis and relapse. […] CD14 and CD11b are two cell surface proteins characteristic to differentiated macrophages/monocytes. […] Similarly, incubation with 2 led to considerably more CD11b^+ cells (Fig. 3b).
For Annexin V apoptosis assay, 10^5 cells/well were incubated with increasing concentrations of a compound for 7 or 14 days. Apoptosis was determined using the FITC Annexin V Apoptosis Detection Kit I (BD Bioscience) using the manufacturer’s protocol. For other FACS assays, cells were labeled with fluorochrome-conjugated monoclonal antibodies against human CD14, CD11b, CD45, or CD33 (BD Biosciences) according to the manufacturer’s recommendation. Cells were analyzed using a FACS Calibur (BD Biosciences/Applied Biosystems), and data were processed using the program Flowjo (version7.6.5).

Data set [2] can be described thus: Toxicity in mice (weight, blood test). The data set is classed as in vivo. The text has this:
Continuous infusion of 1 using a subcutaneously implanted osmotic pump was used for in vivo studies to avoid the unfavorable pharmacokinetics because this route may provide a stable plasma drug concentration.

Another data set has as its system H3K4me2 in MV4-11 cells. The experiment in a line: Western blot of histone H3K4 methylation. The note with it: 3 days. The data set is classed as cell-based, human. The procedure: Compounds 1 and 2 were selected for further biological activity testing. MV4-11 cells were treated with these two compounds for 3 days. […] Other researchers observed the similar results using a different LSD1 inhibitor.
With increasing concentrations of a compound for […], 10^6 cells/well were incubated and histones extracted with the EpiQuik™ Total Histone Extraction Kit (Epigentek) according to the manufacturer’s protocol. Equal amounts of histones (2 μg) were separated on SDS-PAGE and transferred to PVDF membranes. The blots were probed with H3K4-Me2 and H3 primary antibodies (Cell Signaling), followed by antirabbit IgG (Thermo Scientific) secondary antibodies.

On the set-up of data set [3]: method as in PMID 22754608. The note with it: mice; cited from earlier work.
In another data set the target is T1, human MAO-B (Homo sapiens, UniProt P27338).
T1 construct: purchased Sigma
T1 sequence (P27338 1-520): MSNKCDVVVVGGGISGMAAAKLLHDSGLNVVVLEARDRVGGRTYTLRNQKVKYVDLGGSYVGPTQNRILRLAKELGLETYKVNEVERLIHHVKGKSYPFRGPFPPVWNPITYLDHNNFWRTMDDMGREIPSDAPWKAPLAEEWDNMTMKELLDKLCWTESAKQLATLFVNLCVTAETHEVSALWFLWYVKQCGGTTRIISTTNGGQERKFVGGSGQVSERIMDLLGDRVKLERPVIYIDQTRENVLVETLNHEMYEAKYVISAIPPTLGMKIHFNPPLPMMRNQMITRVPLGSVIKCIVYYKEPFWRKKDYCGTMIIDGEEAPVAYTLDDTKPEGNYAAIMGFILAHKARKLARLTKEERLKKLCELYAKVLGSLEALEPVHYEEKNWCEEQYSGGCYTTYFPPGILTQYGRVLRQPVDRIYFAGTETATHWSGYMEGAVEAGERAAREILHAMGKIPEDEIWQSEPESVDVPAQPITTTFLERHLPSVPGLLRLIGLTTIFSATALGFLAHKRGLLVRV
Nature of the data set: MAO-B inhibition (MAO-Glo). The data set is classed as biochemical. The procedure: Because MAO-A and -B play important roles in the degradation of neurotransmitters (e.g., serotonin and dopamine) in the central nervous system, selective inhibition for LSD1 is highly desirable.
Recombinant human MAO-A and -B were purchased from Sigma. The inhibitory activity was determined using MAO-Glo assay kit (Promega). In brief, following the manufacturer’s protocol, assays were performed in 384-well white plates (Corning) using MAO-A or -B (100 nM) with a final volume of 20 μL. Reactions were quenched after 60 min by adding reconstituted luciferin detection reagent (20 μL/well); 20 min after addition of the detection reagent, the luminescence of each well was measured using Beckman DTX-880 microplate reader. IC50 calculation was similar to that of LSD1.

One may read the EC50 as the concentration giving half of the maximal effect. For `CN1CCN(C(=O)CNC2CC2c2ccc(OCc3ccccc3)cc2)CC1` (stereo not shown) [Compound 1], the EC50 with MV4-11 leukemia cells stood at 0.01 µM; in the data set with Molm-13 leukemia cells, 0.096 µM; in the data set with NB4 leukemia cells it was 19.4 µM; with U937 leukemia cells, 18.9 µM; in data set [1] it was 1.6 µM. Besides, in the data set on MV4-11 cells, the “cell populations expressing high levels of CD14” value is more than 90%. In addition, in data set [2] (2.5 and 5 mg/kg/day for 28 days, osmotic pump), the “weight losses and visible signs of toxicity” value is reported as “did not cause weight losses as well as any visible signs of toxicity”. In addition, the “blood cell counts and hemoglobin vs control” value in data set [2] (blood test on day 28) is recorded as “no significant differences; also recorded: no significant changes in blood cell counts”. For the same compound, the “cellular levels of H3K4me2” value in the data set on H3K4me2 in MV4-11 cells was “increase cellular levels of H3K4me2 in a dose-dependent manner”. Further, the “half-life in the plasma” value in data set [3] is recorded as ~ 1 h.
One may read the IC50 as the midpoint of a concentration-inhibition curve. For `CN1CCN(C(=O)CNC2CC2c2ccc(-c3ccc(F)nc3)cc2)CC1` (stereo not shown) [Compound 2], the 50% effective concentration (EC50) amounted to 18.9 µM in the data set with NB4 leukemia cells and 34.6 µM in the data set on U937 leukemia cells. This compound also registered an IC50 at human MAO-B of 480 µM. In addition, the “CD11b+ cells” value in the data set with MV4-11 cells (1 μM) was 19.5%. Further, the “cell populations expressing high levels of CD14” value in the data set with MV4-11 cells is listed as more than 90%. The “cellular levels of H3K4me2” value in the data set with H3K4me2 in MV4-11 cells was “increase cellular levels of H3K4me2 in a dose-dependent manner”.
